Like-named read-outs stand apart in the source and are kept apart here.
Test system: recombinant NL-Rluc virus
Assay: Inhibition of HIV replication (NL-RLuc luciferase reporter virus, MT-2 cells)
Assay type: cell-based
Settings: Human immunodeficiency virus 1, MT2, 120 h

SMILES | EC50 (read-out: Activity) | EC50 (read-out: EC50 μM)
Cc1nc2cc(C(=O)N[C@H]3C[C@@H]3c3ccccc3)nn2c(-c2cc(F)c3c(c2C)CCCO3)c1[C@H](OC(C)(C)C)C(=O)O [Example 56, (2S)-2-(tert-butoxy)-2-(7-(8-fluoro-5-methylchroman-6-yl)-5-methyl-2-(((1S,2R)-2-phenylcyclopropyl)carbamoyl)pyrazolo[1,5-a]pyrimidin-6-yl)acetic acid] | < 0.1 µM | 
COc1cccc(CNC(=O)c2cc3nc(C)c([C@H](OC(C)(C)C)C(=O)O)c(-c4cc(F)c5c(c4C)CCCO5)n3n2)c1 [Example 71] | < 0.1 µM | 
Cc1nc2cc(C(=O)NCc3ccc(F)cc3-n3nncc3C)nn2c(-c2cc(F)c3c(c2C)CCCO3)c1[C@H](OC(C)(C)C)C(=O)O [Example 10, (2S)-2-(tert-butoxy)-2-(2-((4-fluoro-2-(5-methyl-1H-1,2,3-triazol-1-yl)benzyl)carbamoyl)-7-(8-fluoro-5-methylchroman-6-yl)-5-methylpyrazolo[1,5-a]pyrimidin-6-yl)acetic acid] | 0.1 to 1 µM | 
Cc1ccccc1CN(C)C(=O)c1cc2nc(C)c([C@H](OC(C)(C)C)C(=O)O)c(-c3cc(F)c4c(c3C)CCCO4)n2n1 [Example 19, (2S)-2-(tert-butoxy)-2-(7-(8-fluoro-5-methylchroman-6-yl)-5-methyl-2-(methyl(2-methylbenzyl)carbamoyl)pyrazolo[1,5-a]pyrimidin-6-yl)acetic acid] | < 0.1 µM | 
Cc1nc2cc(C(=O)NCc3ccc(F)cc3-n3cncn3)nn2c(-c2cc(F)c3c(c2C)CCCO3)c1[C@H](OC(C)(C)C)C(=O)O [Example 11, (2S)-2-(tert-butoxy)-2-(2-((4-fluoro-2-(1H-1,2,4-triazol-1-yl)benzyl)carbamoyl)-7-(8-fluoro-5-methylchroman-6-yl)-5-methylpyrazolo[1,5-a]pyrimidin-6-yl)acetic acid] | 0.1 to 1 µM | 
Cc1nc2cc(C(=O)NCc3ccc(Oc4ccccc4)cc3)nn2c(-c2cc(F)c3c(c2C)CCCO3)c1[C@H](OC(C)(C)C)C(=O)O [Example 68, (2S)-2-(tert-butoxy)-2-(7-(8-fluoro-5-methylchroman-6-yl)-5-methyl-2-((4-phenoxybenzyl)carbamoyl)pyrazolo[1,5-a]pyrimidin-6-yl)acetic acid] | < 0.1 µM | 
Cc1nc2cc(C(=O)NCCCN3CCCC3=O)nn2c(-c2cc(F)c3c(c2C)CCCO3)c1[C@H](OC(C)(C)C)C(=O)O [Example 76] | > 1 µM | 
Cc1nc2cc(C(=O)NCCC3CCCN3C)nn2c(-c2cc(F)c3c(c2C)CCCO3)c1[C@H](OC(C)(C)C)C(=O)O (stereo partly drawn) [Example 74, (2S)-2-(tert-butoxy)-2-(7-(8-fluoro-5-methylchroman-6-yl)-5-methyl-2-((2-(1-methylpyrrolidin-2-yl)ethyl)carbamoyl)pyrazolo[1,5-a]pyrimidin-6-yl)acetic acid] | > 1 µM | 
COc1cc(F)ccc1CNC(=O)c1cc2nc(C)c([C@H](OC(C)(C)C)C(=O)O)c(-c3cc(F)c4c(c3C)CCCO4)n2n1 [Example 29, (2S)-2-(tert-butoxy)-2-(2-((4-fluoro-2-methoxybenzyl)carbamoyl)-7-(8-fluoro-5-methylchroman-6-yl)-5-methylpyrazolo[1,5-a]pyrimidin-6-yl)acetic acid] | < 0.1 µM | 
Cc1nc2cc(C(=O)NCC3CCCO3)nn2c(-c2cc(F)c3c(c2C)CCCO3)c1[C@H](OC(C)(C)C)C(=O)O (stereo partly drawn) [Example 77, (2S)-2-(tert-butoxy)-2-(7-(8-fluoro-5-methylchroman-6-yl)-5-methyl-2-(((tetrahydrofuran-2-yl)methyl)carbamoyl)pyrazolo[1,5-a]pyrimidin-6-yl)acetic acid] | 0.1 to 1 µM | 
Cc1nc2cc(C(=O)N(C)CCc3ccccn3)nn2c(-c2cc(F)c3c(c2C)CCCO3)c1[C@H](OC(C)(C)C)C(=O)O [Example 89, (2S)-2-(tert-butoxy)-2-(7-(8-fluoro-5-methylchroman-6-yl)-5-methyl-2-(methyl(2-(pyridin-2-yl)ethyl)carbamoyl)pyrazolo[1,5-a]pyrimidin-6-yl)acetic acid] | > 1 µM | 
Cc1nc2cc(C(=O)NC3CCN(Cc4ccccc4)C3)nn2c(-c2cc(F)c3c(c2C)CCCO3)c1[C@H](OC(C)(C)C)C(=O)O (stereo partly drawn) [Example 82, (2S)-2-(2-((1-benzylpyrrolidin-3-yl)carbamoyl)-7-(8-fluoro-5-methylchroman-6-yl)-5-methylpyrazolo[1,5-a]pyrimidin-6-yl)-2-(tert-butoxy)acetic acid] | 0.1 to 1 µM | 
CCCCCc1ccccc1CNC(=O)c1cc2nc(C)c([C@H](OC(C)(C)C)C(=O)O)c(-c3ccc4c(c3Cl)NCCO4)n2n1 [Example 142, (2S)-2-(tert-Butoxy)-2-(7-(5-chloro-3,4-dihydro-2H-benzo[b][1,4]oxazin-6-yl)-5-methyl-2-((2-pentylbenzyl)carbamoyl)pyrazolo[1,5-a]pyrimidin-6-yl)acetic acid] | < 0.1 µM | 
Cc1nc2cc(C(=O)NCc3ccc(F)c(C(F)F)c3)nn2c(-c2cc(F)c3c(c2C)CCCO3)c1[C@H](OC(C)(C)C)C(=O)O [Example 27] | < 0.1 µM | 
Cc1nc2cc(C(=O)NCCC34C[C@H]5C[C@@H](C3)C[C@@H](C4)C5)nn2c(-c2cc(F)c3c(c2C)CCCO3)c1[C@H](OC(C)(C)C)C(=O)O [Example 130] | < 0.1 µM | 
Cc1nc2cc(C(=O)NCCNc3ccccc3)nn2c(-c2cc(F)c3c(c2C)CCCO3)c1[C@H](OC(C)(C)C)C(=O)O [Example 47, (2S)-2-(tert-butoxy)-2-(7-(8-fluoro-5-methylchroman-6-yl)-5-methyl-2-((2-(phenylamino)ethyl)carbamoyl)pyrazolo[1,5-a]pyrimidin-6-yl)acetic acid] | 0.1 to 1 µM | 0.281 µM
Cc1nc2cc(C(=O)NCC3CCN(C(=O)OC(C)(C)C)CC3)nn2c(-c2cc(F)c3c(c2C)CCCO3)c1[C@H](OC(C)(C)C)C(=O)O [Example 59, (2S)-2-(tert-butoxy)-2-(2-(((1-(tert-butoxycarbonyl)piperidin-4-yl)methyl)carbamoyl)-7-(8-fluoro-5-methylchroman-6-yl)-5-methylpyrazolo[1,5-a]pyrimidin-6-yl)acetic acid] | 0.1 to 1 µM | 
Cc1nc2cc(C(=O)N(C)CCC(C)C)nn2c(-c2cc(F)c3c(c2C)CCCO3)c1[C@H](OC(C)(C)C)C(=O)O [Example 98, (2S)-2-(tert-butoxy)-2-(7-(8-fluoro-5-methylchroman-6-yl)-2-(isopentyl(methyl)carbamoyl)-5-methylpyrazolo[1,5-a]pyrimidin-6-yl)acetic acid] | < 0.1 µM | 
Cc1nc2cc(C(=O)NCCc3ccccc3Cl)nn2c(-c2cc(F)c3c(c2C)CCCO3)c1[C@H](OC(C)(C)C)C(=O)O [Example 111, (2S)-2-(tert-butoxy)-2-(2-((2-chlorophenethyl)carbamoyl)-7-(8-fluoro-5-methylchroman-6-yl)-5-methylpyrazolo[1,5-a]pyrimidin-6-yl)acetic acid] | < 0.1 µM | 
CCCc1cc(CNC(=O)c2cc3nc(C)c([C@H](OC(C)(C)C)C(=O)O)c(-c4cc(F)c5c(c4C)CCCO5)n3n2)ccc1F [Example 25, (2S)-2-(tert-butoxy)-2-(2-((4-fluoro-3-propylbenzyl)carbamoyl)-7-(8-fluoro-5-methylchroman-6-yl)-5-methylpyrazolo[1,5-a]pyrimidin-6-yl)acetic acid] | < 0.1 µM | 
Cc1nc2cc(C(=O)NCCOC(C)(C)C)nn2c(-c2cc(F)c3c(c2C)CCCO3)c1[C@H](OC(C)(C)C)C(=O)O [Example 103, (2S)-2-(tert-butoxy)-2-(2-((2-(tert-butoxy)ethyl)carbamoyl)-7-(8-fluoro-5-methylchroman-6-yl)-5-methylpyrazolo[1,5-a]pyrimidin-6-yl)acetic acid] | 0.1 to 1 µM | 0.073 µM
Cc1nccc(-c2cccc(NC(=O)c3cc4nc(C)c([C@H](OC(C)(C)C)C(=O)O)c(-c5cc(F)c6c(c5C)CCCO6)n4n3)c2)n1 [Example 85] | < 0.1 µM | 0.016 µM
Cc1nc2cc(C(=O)NCC3CCCCC3)nn2c(-c2cc(F)c3c(c2C)CCCO3)c1[C@H](OC(C)(C)C)C(=O)O [Example 16, (2S)-2-(tert-butoxy)-2-(2-((cyclohexylmethyl)carbamoyl)-7-(8-fluoro-5-methylchroman-6-yl)-5-methylpyrazolo[1,5-a]pyrimidin-6-yl)acetic acid] | < 0.1 µM | 
Cc1nc2cc(C(=O)NCCCC3CCOC3)nn2c(-c2cc(F)c3c(c2C)CCCO3)c1[C@H](OC(C)(C)C)C(=O)O (stereo partly drawn) [Example 132, (2S)-2-(tert-butoxy)-2-(7-(8-fluoro-5-methylchroman-6-yl)-5-methyl-2-((3-(tetrahydrofuran-3-yl)propyl)carbamoyl)pyrazolo[1,5-a]pyrimidin-6-yl)acetic acid] | 0.1 to 1 µM | 
CCCCc1ccc(CNC(=O)c2cc3nc(C)c([C@H](OC(C)(C)C)C(=O)O)c(-c4cc(F)c5c(c4C)CCCO5)n3n2)cc1 [Example 31, (2S)-2-(tert-butoxy)-2-(2-((4-butylbenzyl)carbamoyl)-7-(8-fluoro-5-methylchroman-6-yl)-5-methylpyrazolo[1,5-a]pyrimidin-6-yl)acetic acid] | < 0.1 µM | 
CNC(=O)c1cc2nc(C)c([C@H](OC(C)(C)C)C(=O)O)c(-c3cc(F)c4c(c3C)CCCO4)n2n1 [Example 137, (2S)-2-(tert-butoxy)-2-(7-(8-fluoro-5-methylchroman-6-yl)-5-methyl-2-(methylcarbamoyl)pyrazolo[1,5-a]pyrimidin-6-yl)acetic acid] | > 1 µM | 
Cc1nc2cc(C(=O)NCCN3CCOCC3)nn2c(-c2cc(F)c3c(c2C)CCCO3)c1[C@H](OC(C)(C)C)C(=O)O [Example 88, (2S)-2-(tert-butoxy)-2-(7-(8-fluoro-5-methylchroman-6-yl)-5-methyl-2-((2-morpholinoethyl)carbamoyl)pyrazolo[1,5-a]pyrimidin-6-yl)acetic acid] | > 1 µM | 
Cc1nc2cc(C(=O)N(C)Cc3cccc(F)c3)nn2c(-c2cc(F)c3c(c2C)CCCO3)c1[C@H](OC(C)(C)C)C(=O)O [Example 23] | < 0.1 µM | 
Cc1nc2cc(C(=O)NCCC(C)(C)C)nn2c(/C=C/CC(C)C)c1[C@H](OC(C)(C)C)C(=O)O [Example 150, (S,E)-2-(tert-Butoxy)-2-(2-((3,3-dimethylbutyl)carbamoyl)-5-methyl-7-(4-methylpent-1-en-1-yl)pyrazolo[1,5-a]pyrimidin-6-yl)acetic acid] | > 1 µM | 1.2 µM
